Drawing on patent publication US20110144010A1, “Spontaneously Dispersible Preconcentrates Including a Peptide Drug in a Solid or Semisolid Carrier” (Novo Nordisk A/S, priority 2007, published 2011), this text covers Blood glucose level and Blood glucose levels for two substances.

In test [1] the test system is non-diabetic SPRD rats. The experiment in a line: Reduction of the blood glucose level after per-oral dosage (via gavage) to non-diabetic SPRD rats. The test is classed as in vivo. As to the method: The reduction in blood glucose in non-diabetic rats was examined after:
3) Vehicle SEDDS containing 62.5% propylene glycol, 31.25% Capmul MCM C10 and 6.25% poloxamer 407 was dosed orally. SEDDS had been melted at 35° C. before dosing.
(mean±SEM, n=5-6, dosage volume=4 ml/kg).

Test [2] has as its system non diabetic dogs. The experiment in a line: Reduction in blood glucose after oral administration of enteric coated capsule to non diabetic dogs. The test is classed as in vivo. The conditions noted are these: overnight fasted dogs, propylene glycol, Capmul MCM, Pluronic F127, PEG 3350.

With A14GluB25HisdesB30 human insulin, the Blood glucose level result in test [1] (4800 nmol/kg in SEDDS (propylene glycol, Capmul MCM C10, poloxamer 407) or 4880 nmol/kg in H2O, FIG. 4) is “Reduction of the Blood Glucose Level”. For the same substance, the Blood glucose levels entry in test [2] (oral enteric coated capsule: 46 mg A14GluB25HisdesB30 human insulin, FIG. 2) is reported as “Reduction in blood glucose levels”.

Take Asp^B28 human insulin [insulin aspart]: the Blood glucose level result in test [1] (9600 nmol/kg in SEDDS (propylene glycol, Capmul MCM C10, poloxamer 407) or 9800 nmol/kg in H2O, FIG. 3) is “Reduction of the Blood Glucose Level”. Also, in test [2] (oral enteric coated capsule: 69 mg insulin aspart, FIG. 1), the Blood glucose levels result is “Reduction in blood glucose levels”.
